Measurements taken from ChEMBL document CHEMBL1201862, “PubChem BioAssay data set” (2004).
Activity calls are given as the source filed them.

Key:
[1] = target: G-protein coupled receptor 35 (Homo sapiens, UniProt Q9HC97); assay: inhibition of zaprinast-stimulated GPR35 beta-arrestin translocation – imaging, U2OS, beta-arrestin-GFP, zaprinast agonist, primary screen (AID 2058); assay type: functional;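 note: antagonist potency meaning inhibition of agonist-induced arrestin redistribution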
[2] = target: T1, Voltage-gated N-type calcium channel alpha-1B subunit/Amyloid beta A4 precursor protein-binding family A member 1 (Homo sapiens, UniProt Q00975+Q02410); assay type: protein assay
T1 sequence (Q00975 whole entry): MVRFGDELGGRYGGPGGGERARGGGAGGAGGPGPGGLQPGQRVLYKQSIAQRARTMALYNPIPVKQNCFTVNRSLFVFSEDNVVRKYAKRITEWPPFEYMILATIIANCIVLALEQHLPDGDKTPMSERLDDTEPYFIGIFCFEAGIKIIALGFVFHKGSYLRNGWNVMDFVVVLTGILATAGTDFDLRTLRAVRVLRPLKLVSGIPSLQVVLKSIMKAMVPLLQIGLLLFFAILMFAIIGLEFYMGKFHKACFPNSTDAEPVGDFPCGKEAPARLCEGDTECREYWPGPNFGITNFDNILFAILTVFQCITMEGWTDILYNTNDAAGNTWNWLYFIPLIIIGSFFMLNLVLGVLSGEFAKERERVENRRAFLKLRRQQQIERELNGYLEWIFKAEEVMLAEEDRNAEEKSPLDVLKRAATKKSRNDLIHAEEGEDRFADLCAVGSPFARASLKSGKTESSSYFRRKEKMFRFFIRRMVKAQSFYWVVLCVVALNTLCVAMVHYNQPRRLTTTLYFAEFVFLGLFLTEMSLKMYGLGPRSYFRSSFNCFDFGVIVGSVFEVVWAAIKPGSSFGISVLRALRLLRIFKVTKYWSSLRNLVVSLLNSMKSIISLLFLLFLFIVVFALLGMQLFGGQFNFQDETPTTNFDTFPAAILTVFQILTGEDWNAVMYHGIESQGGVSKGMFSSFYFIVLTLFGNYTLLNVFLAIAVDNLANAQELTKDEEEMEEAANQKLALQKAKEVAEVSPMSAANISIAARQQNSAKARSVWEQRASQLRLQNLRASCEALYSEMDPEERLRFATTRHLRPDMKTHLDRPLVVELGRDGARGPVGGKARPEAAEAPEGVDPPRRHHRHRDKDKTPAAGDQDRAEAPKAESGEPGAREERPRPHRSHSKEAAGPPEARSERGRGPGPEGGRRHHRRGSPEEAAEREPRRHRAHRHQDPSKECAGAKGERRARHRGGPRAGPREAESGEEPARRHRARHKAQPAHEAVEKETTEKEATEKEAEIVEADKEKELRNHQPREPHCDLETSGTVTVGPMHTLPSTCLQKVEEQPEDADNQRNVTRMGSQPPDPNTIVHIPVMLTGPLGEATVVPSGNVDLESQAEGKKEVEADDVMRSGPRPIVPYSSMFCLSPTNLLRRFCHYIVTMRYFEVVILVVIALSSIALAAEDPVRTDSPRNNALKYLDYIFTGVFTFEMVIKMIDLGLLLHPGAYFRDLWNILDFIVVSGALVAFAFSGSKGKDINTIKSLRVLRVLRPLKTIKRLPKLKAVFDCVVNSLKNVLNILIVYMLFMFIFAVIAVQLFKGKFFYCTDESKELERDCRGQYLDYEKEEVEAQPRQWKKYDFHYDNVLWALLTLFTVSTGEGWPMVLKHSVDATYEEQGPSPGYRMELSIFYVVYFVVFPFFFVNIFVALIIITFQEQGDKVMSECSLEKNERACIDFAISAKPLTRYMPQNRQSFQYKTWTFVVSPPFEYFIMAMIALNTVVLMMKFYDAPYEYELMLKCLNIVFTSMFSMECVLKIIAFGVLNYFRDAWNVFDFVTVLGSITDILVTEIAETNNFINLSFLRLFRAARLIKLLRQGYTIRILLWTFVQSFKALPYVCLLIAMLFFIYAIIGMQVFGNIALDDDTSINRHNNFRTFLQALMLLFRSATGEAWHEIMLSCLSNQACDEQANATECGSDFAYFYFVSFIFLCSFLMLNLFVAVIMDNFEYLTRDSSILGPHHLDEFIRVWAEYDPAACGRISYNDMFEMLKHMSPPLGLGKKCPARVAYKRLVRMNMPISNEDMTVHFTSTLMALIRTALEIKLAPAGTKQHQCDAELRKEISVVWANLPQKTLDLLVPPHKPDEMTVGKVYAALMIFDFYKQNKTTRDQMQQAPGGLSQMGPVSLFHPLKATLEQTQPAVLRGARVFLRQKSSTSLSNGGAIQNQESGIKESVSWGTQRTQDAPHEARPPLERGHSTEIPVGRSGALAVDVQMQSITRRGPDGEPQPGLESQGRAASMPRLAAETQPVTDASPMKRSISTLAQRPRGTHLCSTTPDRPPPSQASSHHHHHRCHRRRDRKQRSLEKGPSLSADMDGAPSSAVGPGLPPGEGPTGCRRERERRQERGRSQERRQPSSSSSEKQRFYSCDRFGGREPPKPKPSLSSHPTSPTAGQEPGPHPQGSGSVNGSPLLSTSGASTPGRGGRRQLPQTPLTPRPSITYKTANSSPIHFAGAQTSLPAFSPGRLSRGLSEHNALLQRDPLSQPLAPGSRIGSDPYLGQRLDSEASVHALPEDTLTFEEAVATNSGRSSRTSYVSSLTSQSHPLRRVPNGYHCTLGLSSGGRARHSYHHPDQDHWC
T1 sequence (Q02410 whole entry): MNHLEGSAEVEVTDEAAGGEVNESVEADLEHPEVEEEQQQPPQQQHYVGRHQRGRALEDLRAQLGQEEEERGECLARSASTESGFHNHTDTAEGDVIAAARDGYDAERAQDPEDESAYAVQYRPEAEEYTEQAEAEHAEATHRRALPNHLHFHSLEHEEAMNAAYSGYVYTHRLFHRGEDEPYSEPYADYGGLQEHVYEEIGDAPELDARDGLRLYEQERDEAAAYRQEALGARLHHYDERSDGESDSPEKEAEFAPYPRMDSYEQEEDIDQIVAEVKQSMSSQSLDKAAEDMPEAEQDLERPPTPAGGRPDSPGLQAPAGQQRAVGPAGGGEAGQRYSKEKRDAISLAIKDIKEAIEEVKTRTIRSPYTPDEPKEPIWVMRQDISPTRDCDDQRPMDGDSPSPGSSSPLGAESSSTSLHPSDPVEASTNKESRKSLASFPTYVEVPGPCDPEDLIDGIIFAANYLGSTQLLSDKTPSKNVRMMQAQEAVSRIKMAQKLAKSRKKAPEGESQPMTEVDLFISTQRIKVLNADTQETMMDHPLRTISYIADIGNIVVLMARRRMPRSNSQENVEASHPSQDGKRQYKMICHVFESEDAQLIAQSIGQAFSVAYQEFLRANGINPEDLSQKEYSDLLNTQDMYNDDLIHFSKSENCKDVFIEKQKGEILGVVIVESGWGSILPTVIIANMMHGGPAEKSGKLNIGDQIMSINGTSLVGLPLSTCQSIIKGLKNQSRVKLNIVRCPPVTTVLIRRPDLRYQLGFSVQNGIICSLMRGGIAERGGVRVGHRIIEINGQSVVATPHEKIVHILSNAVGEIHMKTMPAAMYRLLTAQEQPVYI

[3] = target: T1, Voltage-gated N-type calcium channel alpha-1B subunit/Amyloid beta A4 precursor protein-binding family A member 1; assay type: protein assay; remark: listed apart in the source
[4] = target: T2, Rac GTPase-activating protein 1 (Homo sapiens, UniProt Q9H0H5); assay: blockers of MgcRacGAP-driven Rac1 GTP hydrolysis – biochemical, ADP Hunter fluorescence, primary and confirmatory, confirmation (AID 624330); assay type: functional
T2 sequence (Q9H0H5 whole entry): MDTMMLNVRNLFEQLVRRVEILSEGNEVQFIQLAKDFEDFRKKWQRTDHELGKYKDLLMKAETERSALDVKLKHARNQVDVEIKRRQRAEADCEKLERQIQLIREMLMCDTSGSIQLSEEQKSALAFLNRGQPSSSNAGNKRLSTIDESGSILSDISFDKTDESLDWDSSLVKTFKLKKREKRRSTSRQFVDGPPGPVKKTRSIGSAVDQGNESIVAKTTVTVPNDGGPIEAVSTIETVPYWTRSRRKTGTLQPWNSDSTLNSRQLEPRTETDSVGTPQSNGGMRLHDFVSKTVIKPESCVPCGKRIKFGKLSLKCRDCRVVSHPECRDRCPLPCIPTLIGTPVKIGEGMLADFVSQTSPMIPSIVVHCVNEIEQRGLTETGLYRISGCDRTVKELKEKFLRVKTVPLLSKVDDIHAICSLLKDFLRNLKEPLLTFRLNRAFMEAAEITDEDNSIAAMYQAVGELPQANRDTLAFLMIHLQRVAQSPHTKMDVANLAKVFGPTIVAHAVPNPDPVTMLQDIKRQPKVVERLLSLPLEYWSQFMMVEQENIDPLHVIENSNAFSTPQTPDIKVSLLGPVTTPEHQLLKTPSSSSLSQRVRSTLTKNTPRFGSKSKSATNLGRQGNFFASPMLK

Cytochrome P450 1A2 = target: T3, Cytochrome P450 1A2 (Homo sapiens, UniProt P05177);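 note: PubChem cytochrome P450 panel assay, CYP1A2 panel member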
T3 sequence (P05177 whole entry): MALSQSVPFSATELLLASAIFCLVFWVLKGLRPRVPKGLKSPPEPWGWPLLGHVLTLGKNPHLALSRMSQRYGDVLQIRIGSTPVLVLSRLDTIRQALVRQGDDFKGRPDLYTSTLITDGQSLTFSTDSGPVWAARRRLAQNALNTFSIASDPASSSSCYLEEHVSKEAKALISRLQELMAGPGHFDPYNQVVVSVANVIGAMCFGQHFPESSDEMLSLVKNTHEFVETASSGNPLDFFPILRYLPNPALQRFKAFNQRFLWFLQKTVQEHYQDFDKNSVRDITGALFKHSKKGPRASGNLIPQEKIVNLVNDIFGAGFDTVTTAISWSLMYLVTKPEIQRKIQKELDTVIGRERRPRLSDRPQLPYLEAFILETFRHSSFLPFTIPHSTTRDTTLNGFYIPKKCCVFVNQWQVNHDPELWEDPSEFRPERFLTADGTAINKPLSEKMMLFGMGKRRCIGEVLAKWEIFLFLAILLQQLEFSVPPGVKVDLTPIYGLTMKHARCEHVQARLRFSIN

Cytochrome P450 2D6 = Cytochrome P450 2D6 (Homo sapiens, UniProt P10635);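 note: CYP2D6 member of a cytochrome P450 panel assay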
[5] = target: G-protein coupled receptor 55 (Homo sapiens, UniProt Q9Y2T6); assay: inhibition of LPI-stimulated GPR55 beta-arrestin translocation – imaging, U2OS, beta-arrestin-GFP, LPI agonist, primary screen (AID 2013); assay type: functional;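 note: antagonist potency measured as reduced agonist-driven arrestin aggregation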
Chain of G-protein coupled receptor 55 (Q9Y2T6 whole entry): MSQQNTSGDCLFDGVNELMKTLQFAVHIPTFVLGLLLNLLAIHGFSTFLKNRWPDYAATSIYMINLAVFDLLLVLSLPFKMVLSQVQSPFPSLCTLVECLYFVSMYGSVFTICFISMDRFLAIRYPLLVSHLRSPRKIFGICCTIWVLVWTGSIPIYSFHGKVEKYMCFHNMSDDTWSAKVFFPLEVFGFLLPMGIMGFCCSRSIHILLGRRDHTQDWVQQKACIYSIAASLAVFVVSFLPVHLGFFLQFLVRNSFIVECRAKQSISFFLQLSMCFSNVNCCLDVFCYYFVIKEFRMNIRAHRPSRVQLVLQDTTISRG

Cytochrome P450 2C9 = Cytochrome P450 2C9 (Homo sapiens, UniProt P11712)
Cytochrome P450 3A4 = Cytochrome P450 3A4 (Homo sapiens, UniProt P08684);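 note: CYP3A4 tested as one member of a cytochrome P450 panel screen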
[6] = target: Polyadenylate-binding protein 1 (Homo sapiens, UniProt P11940); assay: PABP inhibition in translation initiation, SAR follow-up (AID 435018); assay type: functional
Chain of Polyadenylate-binding protein 1 (P11940 whole entry): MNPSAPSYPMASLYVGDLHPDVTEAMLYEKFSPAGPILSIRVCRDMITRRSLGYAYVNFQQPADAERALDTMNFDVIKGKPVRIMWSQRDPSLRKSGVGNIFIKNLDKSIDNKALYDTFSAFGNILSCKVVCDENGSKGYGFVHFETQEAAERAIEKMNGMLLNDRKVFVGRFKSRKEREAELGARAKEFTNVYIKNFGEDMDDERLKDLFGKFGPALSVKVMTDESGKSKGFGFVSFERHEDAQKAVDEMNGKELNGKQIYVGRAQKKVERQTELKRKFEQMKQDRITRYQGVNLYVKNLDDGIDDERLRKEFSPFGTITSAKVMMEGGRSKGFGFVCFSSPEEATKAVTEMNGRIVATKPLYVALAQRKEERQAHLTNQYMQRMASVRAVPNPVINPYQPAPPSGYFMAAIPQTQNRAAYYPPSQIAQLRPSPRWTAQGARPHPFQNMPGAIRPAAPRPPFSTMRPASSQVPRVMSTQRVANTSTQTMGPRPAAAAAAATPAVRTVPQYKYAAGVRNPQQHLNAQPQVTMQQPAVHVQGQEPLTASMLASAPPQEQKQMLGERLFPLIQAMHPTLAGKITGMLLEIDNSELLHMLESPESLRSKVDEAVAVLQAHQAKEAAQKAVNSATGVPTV

[7] = target: Eukaryotic translation initiation factor 4H (Homo sapiens, UniProt Q15056); assay: inhibitors of translation initiation factor eIF4H – SAR follow-up (AID 435011); assay type: functional
[8] = viability of uninfected HEp-2 cells – cell-based, HTS, cytotoxicity control for RSV inhibitor project, dose response (AID 2410); assay type: functional; details: human respiratory syncytial virus
Trypsin = Trypsin (Sus scrofa, UniProt P00761); assay: trypsin protease activity blockade – biochemical, quenched peptide fluorescence, cherry-pick, selectivity assay for Rce1 protease inhibitor project, dose response (AID 488789)
CAAX prenyl protease 2 = target: T4, CAAX prenyl protease 2 (Homo sapiens, UniProt Q9Y256); assay: inhibition of Ras-converting CAAX protease Rce1 – biochemical, yeast membranes, quenched-peptide fluorescence, cherry-pick, dose response (AID 588849)
T4 sequence (Q9Y256 whole entry): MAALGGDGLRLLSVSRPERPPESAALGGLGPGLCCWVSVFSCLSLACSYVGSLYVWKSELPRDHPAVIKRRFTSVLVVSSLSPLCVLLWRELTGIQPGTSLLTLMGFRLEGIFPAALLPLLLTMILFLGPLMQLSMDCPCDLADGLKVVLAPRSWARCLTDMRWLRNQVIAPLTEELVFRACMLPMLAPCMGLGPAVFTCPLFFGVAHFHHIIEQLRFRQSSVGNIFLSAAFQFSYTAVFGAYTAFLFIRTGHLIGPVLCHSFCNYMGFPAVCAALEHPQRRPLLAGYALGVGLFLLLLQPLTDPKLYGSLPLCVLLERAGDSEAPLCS

Streptokinase A = target: T5, Streptokinase A (Streptococcus pyogenes serotype M1, UniProt P10520); assay: viability-normalized secreted streptokinase activity reduction – plasminogen activation absorbance, OD405, dose response (AID 1914); assay type: functional, Streptococcus pyogenes M1 GAS;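 note: secreted streptokinase activity via plasminogen activation per viability signal from cell pellet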
T5 sequence (P10520 whole entry): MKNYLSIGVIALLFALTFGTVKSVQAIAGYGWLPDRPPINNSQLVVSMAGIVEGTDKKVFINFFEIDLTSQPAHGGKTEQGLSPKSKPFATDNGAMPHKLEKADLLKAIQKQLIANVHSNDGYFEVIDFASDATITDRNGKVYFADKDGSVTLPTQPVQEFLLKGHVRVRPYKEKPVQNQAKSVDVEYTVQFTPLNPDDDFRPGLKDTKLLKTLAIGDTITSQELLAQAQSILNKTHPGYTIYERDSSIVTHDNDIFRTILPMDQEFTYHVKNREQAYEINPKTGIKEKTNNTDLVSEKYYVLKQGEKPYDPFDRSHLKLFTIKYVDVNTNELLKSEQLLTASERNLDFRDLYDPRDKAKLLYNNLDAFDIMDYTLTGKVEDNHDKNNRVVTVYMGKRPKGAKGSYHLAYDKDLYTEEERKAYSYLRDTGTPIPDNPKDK

Streptococcus = assay: GAS UMAA2166 growth inhibition – luminescence, BacTiterGlo, counter-screen for streptokinase expression inhibitor project, dose response (AID 1915); assay type: functional, organism-based;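 note: potency for reduction of bacterial viability or growth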
[9] = system: Streptococcus sp. 'group A'; assay: Streptococcus pyogenes SK(-)GAS viability under kanamycin – luminescence, BacTiterGlo, confirmation, counter-screen for streptokinase expression inhibitor project, dose response (AID 1900); assay type: functional, organism-based
[10] = target: Glucose-6-phosphate 1-dehydrogenase (Homo sapiens, UniProt P11413); assay: inhibition of Homo sapiens G6PD, dose series – biochemical, fluorescence, selectivity assay for P. falciparum G6PD inhibitor project, dose response (AID 504792); assay type: functional
Hexokinase = Hexokinase (Trypanosoma brucei, UniProt Q38C41); assay: Confirmation assay for inhibitors of Trypanosoma brucei hexokinase 1-Analogue-first series. [Related pubchem assays (depositor defined):AID1430, AID1632, AID2516, AID2560, AID2579, AID2600, AID449725, AID492951]; assay type: functional
Chain of Hexokinase (Q38C41 whole entry): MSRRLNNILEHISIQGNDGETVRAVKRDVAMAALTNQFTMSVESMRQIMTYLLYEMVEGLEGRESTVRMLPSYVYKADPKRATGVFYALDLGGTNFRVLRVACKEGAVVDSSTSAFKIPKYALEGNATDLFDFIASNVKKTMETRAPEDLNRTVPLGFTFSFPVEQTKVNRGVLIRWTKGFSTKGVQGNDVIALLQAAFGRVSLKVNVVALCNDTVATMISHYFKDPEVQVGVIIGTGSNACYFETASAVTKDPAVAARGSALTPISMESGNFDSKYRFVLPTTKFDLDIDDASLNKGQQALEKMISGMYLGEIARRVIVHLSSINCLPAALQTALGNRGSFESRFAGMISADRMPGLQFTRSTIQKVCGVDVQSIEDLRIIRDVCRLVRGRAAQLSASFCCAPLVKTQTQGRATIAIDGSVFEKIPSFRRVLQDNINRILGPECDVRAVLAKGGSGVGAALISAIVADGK

[11] = viability loss in HeLa cells – cytotoxicity control for MgcRacGAP inhibitor project, dose response (AID 624300); assay type: functional
Mu-type opioid receptor = Mu-type opioid receptor (Homo sapiens, UniProt P35372); assay: (§1) Counterscreen for agonists of heterodimerization of the mu 1 (OPRM1) and delta 1 (OPRD1) opioid receptors: Luminescence-based cell-based high throughput dose response assay to identify agonists of OPRM1 homodimerization.; assay type: functional
[12] = target: T6, Short transient receptor potential channel 4 (Mus musculus, UniProt Q9QUQ5); assay: block of DAMGO-driven TRPC4 calcium entry – cell-based, HEK293 TRPC4/mu-opioid, Fluo-4 calcium, dose response (AID 434942); assay type: functional;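 note: potency of inhibitors blocking the TRPC4 calcium response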
T6 sequence (Q9QUQ5 whole entry): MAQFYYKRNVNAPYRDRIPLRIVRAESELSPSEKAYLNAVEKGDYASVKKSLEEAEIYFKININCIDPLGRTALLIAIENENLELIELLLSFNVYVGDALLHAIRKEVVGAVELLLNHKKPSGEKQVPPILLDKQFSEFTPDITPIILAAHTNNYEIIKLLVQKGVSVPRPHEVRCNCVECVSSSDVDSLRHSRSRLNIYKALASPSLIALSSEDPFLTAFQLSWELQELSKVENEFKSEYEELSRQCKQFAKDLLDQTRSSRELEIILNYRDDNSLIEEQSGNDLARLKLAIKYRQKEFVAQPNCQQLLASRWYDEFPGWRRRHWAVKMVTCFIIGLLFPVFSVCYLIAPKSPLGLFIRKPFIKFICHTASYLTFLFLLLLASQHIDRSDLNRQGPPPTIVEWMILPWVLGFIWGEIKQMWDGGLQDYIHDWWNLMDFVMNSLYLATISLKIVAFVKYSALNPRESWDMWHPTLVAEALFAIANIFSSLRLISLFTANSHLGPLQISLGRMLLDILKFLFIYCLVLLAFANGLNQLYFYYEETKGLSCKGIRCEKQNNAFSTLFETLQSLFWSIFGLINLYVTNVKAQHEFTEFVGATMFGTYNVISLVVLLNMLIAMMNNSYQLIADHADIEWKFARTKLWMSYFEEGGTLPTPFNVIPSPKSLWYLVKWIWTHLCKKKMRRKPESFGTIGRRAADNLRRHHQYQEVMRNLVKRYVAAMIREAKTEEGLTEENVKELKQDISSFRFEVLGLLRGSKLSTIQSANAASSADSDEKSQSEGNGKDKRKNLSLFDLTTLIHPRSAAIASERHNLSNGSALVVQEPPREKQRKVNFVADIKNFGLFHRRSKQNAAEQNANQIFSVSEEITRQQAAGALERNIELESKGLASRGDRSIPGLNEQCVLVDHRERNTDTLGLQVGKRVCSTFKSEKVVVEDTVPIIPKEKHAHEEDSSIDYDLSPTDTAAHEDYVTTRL

[13] = target: Delta-type opioid receptor (Homo sapiens, UniProt P41143); assay: as §1, with “of OPRD1” for “of OPRM1”, “homodimerization. [Related pubchem assays (depositor defined):AID504326, AID504355, AID504692, AID504904, AID504905]” for “homodimerization.”; assay type: functional
[14] = target: 5-hydroxytryptamine receptor 5A (Homo sapiens, UniProt P47898); assay: Counterscreen for agonists of OPRM1-OPRD1 heterodimerization: luminescence-based cell-based high throughput dose response assay to identify agonists of 5-hydroxytryptamine (serotonin) 5A receptor (HTR5A). [Related pubchem assays (depositor defined):AID504326, AID504355, AID504692, AID504904, AID504905]; assay type: functional
Nonstructural protein 1 = Nonstructural protein 1 (Influenza A virus, UniProt Q194T2); assay type: functional, Influenza A virus (A/California/07/2009(H1N1))
Bcl-2-like protein 10 = Bcl-2-like protein 10 (Homo sapiens, UniProt Q9HD36); assay: Bcl-B/TR3 peptide binding disruption – biochemical, fluorescence polarization, FITC-TR3 peptide, selectivity assay for Bfl-1 inhibitor project, primary screen (AID 748);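 note: fluorescence polarization from a fluorescein-labelled TR3 peptide binding purified Bcl-B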
Chain of Bcl-2-like protein 10 (Q9HD36 whole entry): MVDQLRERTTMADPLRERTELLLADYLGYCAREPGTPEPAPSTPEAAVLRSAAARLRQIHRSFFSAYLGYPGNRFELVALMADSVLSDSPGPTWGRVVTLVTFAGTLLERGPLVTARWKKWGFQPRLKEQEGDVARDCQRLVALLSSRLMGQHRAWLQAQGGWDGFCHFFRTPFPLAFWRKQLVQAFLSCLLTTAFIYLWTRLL

CN(C)c1ccc(/C=C2\NC(=S)N(Cc3ccccc3)C2=O)cc1
IC50 [1]: 0.651 µM (active)

Cc1cccc(NC(=S)NCc2ccco2)n1
IC50 [2]: 6.94 µM (active) | IC50 [3]: > 50 µM (inactive)

N#C/C(=C/c1ccc(N2CCOCC2)o1)c1nc2ccccc2[nH]1
IC50 [4]: 20.4 µM (active) | IC50 [1]: 2.41 µM (active)

NC1=C(c2nc(-c3ccc(F)cc3)cs2)C(=O)CN1CCCN1CCOCC1
AC50 (Cytochrome P450 1A2): 15.8 µM (inconclusive) | AC50 (Cytochrome P450 2D6): 28.2 µM (inconclusive) | IC50 [5]: 9.02 µM (active) | AC50 (Cytochrome P450 2C9): 28.2 µM (inconclusive) | AC50 (Cytochrome P450 3A4): 10 µM (inconclusive)

O=C(CSc1ccc(-c2ccco2)nn1)NCc1ccccc1
IC50 [6]: > 100 µM (inactive) | IC50 [7]: 57 µM (active)

COc1ccc(N=C2SC(C(=O)Nc3ccc(F)cc3)CC(=O)N2C)cc1 (configuration not stated)
IC50 [6]: > 100 µM (inactive) | IC50 [7]: > 100 µM (inactive)

NC(=O)c1sc2nc(N3CCCCC3)c3c(c2c1N)CCCC3
CC50 [8]: 15.6 µM (active) | AC50 (Trypsin): 3.58 µM (active) | AC50 (CAAX prenyl protease 2): 7.04 µM (active)

c1ccc(-c2noc(-c3ccccc3-c3ccccc3)n2)cc1
IC50 [5]: 6.09 µM (active) | EC50 (Streptokinase A): 21.5 µM (active) | EC50 (Streptococcus): > 150 µM (not active) | EC50 [9]: 11.8 µM (active)

O=c1c2cc(F)ccc2sn1-c1ccccc1Cl
IC50 [4]: 35 µM (active) | IC50 [10]: 15.9 µM (active) | IC50 (Hexokinase): 2.33 µM (active) | CC50 [11]: 71.9 µM (active)

O=C(Nc1cc(Cl)ccc1C(=O)O)c1ccc(-c2cccs2)cc1
IC50 (Hexokinase): > 25 µM (inactive)

CC(=O)Nc1ccc(S(=O)(=O)NC2=C(N3CCN(Cc4ccccc4)CC3)C(=O)c3ccccc3C2=O)cc1
EC50 (Mu-type opioid receptor): > 92.4 µM (inactive) | EC50 [12]: 1.06 µM (active) | EC50 [13]: > 92.4 µM (inactive) | EC50 [14]: > 92.4 µM (inactive) | IC50 (Nonstructural protein 1): 21.4 µM (active) | IC50 (Bcl-2-like protein 10): 77.9 µM (inactive)
